Measured values as given in patent US8450325B2, “Methods for reducing the recurrence of cardiac arrhythmia” (ChanRx Corp., priority 2002, dated 2013).
“Also recorded” adds a separate entry of the source.

Legend:
[1] = target: hKvLQT1/hminK (IKs) channel (Homo sapiens, UniProt P51787); experiment: voltage clamp current block, hKvLQT1/hminK channel in stably transfected mammalian cells; assay type: cell-based; conditions: 0.067 Hz, 4 bpm, unit inferred; read-out: IC50, block of IKs (hKvLQT1/hminK) channels
[2] = 100 mg doses for 1 week; cited from earlier work
[3] = target: T1, native cardiac L-type calcium channel (gpCaCh, ICa,L) (Cavia porcellus, UniProt O35505); experiment: voltage clamp current block, native cardiac L-type calcium channel in guinea pig cardiomyocytes; assay type: cell-based; conditions: 0.05 Hz, 3 beats per minute
T1 construct: native cardiac L-type calcium channel expressed in guinea pig cardiomyocytes; endogenous in cells; host or cells: guinea pig cardiomyocytes

rKv4.3 (Ito) channel = target: T2, rKv4.3 (Ito) channel (Rattus norvegicus, UniProt Q62897); experiment: voltage clamp current block, rKv4.3 channel in stably transfected mammalian cells; assay type: cell-based; conditions: Ito (rKv4.3); 0.067 Hz, 4 bpm
T2 sequence (Q62897 1-655): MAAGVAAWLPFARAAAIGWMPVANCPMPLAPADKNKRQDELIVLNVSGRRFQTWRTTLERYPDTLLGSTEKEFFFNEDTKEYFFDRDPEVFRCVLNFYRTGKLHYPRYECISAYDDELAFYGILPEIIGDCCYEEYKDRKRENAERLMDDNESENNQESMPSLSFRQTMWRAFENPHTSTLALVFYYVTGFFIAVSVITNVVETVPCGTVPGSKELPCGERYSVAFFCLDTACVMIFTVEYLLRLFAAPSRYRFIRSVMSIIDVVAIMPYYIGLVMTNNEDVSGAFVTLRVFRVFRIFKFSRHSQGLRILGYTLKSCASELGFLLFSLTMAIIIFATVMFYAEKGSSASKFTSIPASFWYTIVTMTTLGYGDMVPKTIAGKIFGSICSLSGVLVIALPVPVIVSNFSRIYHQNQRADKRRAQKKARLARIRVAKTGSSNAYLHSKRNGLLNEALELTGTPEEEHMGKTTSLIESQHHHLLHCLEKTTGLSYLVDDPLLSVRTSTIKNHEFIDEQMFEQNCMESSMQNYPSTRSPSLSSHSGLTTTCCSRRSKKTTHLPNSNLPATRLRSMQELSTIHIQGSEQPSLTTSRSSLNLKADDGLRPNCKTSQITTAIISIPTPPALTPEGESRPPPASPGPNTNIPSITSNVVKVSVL

hHNa ion channel = hHNa ion channel (Homo sapiens, UniProt Q14524); experiment: voltage clamp current block, hHNa channel in stably transfected mammalian cells; assay type: cell-based; conditions: 0.1 Hz, 6 bpm
Excerpt: (§1) Nonlinear least squares fits of the current ratio data yielded the best fit value for the IC50 concentration. A positive control was included for each channel tested in the study.

hKv1.5 channel = hKv1.5 channel (Homo sapiens, UniProt P22460); experiment: voltage clamp current block, hKv1.5 channel in stably transfected mammalian cells; assay type: cell-based; conditions: 0.1 Hz, 6 bpm
dog Purkinje fibers = experiment: duration of the cardiac action potential in dog Purkinje fibers; parameters: dose or concentration left out as unconfirmed
hERG (IKr) channel = hERG (IKr) channel (Homo sapiens, UniProt Q12809); experiment: in vitro
Excerpt: as §1

hHNa ion channel, sequence (Q14524 whole entry): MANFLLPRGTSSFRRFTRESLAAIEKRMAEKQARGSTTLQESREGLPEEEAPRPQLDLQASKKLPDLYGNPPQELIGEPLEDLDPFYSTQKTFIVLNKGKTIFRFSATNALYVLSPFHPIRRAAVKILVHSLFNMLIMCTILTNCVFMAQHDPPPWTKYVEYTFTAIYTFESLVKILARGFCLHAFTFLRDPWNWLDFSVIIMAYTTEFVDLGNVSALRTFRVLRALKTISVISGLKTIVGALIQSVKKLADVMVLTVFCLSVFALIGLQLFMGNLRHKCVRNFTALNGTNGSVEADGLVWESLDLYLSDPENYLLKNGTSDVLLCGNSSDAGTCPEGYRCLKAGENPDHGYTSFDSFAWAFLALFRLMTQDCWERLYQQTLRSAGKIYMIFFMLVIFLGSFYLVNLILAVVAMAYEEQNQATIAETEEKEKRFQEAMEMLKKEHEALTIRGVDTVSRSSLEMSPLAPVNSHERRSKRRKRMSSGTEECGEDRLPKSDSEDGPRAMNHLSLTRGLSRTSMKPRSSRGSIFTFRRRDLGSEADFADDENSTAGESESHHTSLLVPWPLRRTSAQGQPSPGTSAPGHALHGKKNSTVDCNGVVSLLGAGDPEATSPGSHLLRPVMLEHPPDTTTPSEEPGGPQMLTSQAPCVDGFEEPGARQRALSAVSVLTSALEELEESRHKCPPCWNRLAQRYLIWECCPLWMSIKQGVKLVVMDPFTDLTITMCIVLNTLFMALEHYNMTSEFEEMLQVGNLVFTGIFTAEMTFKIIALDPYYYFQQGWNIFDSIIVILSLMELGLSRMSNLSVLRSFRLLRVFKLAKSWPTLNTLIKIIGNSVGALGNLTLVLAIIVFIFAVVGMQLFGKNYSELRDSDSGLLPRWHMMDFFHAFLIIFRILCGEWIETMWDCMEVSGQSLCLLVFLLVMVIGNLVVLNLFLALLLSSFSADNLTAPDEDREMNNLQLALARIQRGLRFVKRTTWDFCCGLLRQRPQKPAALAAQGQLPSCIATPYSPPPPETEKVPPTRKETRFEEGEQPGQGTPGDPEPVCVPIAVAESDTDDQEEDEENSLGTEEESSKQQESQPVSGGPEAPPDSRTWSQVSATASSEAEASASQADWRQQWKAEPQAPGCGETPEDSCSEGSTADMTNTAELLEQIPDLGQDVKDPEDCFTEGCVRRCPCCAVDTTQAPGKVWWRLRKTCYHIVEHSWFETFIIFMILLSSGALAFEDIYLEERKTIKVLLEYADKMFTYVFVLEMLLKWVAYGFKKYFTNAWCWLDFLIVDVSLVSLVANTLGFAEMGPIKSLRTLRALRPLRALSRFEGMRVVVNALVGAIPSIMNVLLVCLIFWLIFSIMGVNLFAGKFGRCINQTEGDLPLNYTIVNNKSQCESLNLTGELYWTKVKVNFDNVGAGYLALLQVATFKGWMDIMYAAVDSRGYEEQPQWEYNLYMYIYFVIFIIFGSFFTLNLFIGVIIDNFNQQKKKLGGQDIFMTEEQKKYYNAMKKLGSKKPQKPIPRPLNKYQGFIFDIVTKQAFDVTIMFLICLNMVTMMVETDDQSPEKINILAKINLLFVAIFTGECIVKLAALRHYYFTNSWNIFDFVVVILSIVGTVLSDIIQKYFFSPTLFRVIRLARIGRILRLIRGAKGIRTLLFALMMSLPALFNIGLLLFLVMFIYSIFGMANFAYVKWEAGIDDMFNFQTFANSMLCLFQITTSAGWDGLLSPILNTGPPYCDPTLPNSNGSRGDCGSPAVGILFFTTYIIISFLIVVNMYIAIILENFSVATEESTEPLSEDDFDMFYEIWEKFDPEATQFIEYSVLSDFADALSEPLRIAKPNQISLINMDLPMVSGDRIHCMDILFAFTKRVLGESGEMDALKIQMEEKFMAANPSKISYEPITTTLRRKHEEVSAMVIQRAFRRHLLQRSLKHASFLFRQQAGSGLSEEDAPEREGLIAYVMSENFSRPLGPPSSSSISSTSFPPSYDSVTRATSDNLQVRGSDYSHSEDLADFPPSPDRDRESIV
hKv1.5 channel, sequence (P22460 whole entry): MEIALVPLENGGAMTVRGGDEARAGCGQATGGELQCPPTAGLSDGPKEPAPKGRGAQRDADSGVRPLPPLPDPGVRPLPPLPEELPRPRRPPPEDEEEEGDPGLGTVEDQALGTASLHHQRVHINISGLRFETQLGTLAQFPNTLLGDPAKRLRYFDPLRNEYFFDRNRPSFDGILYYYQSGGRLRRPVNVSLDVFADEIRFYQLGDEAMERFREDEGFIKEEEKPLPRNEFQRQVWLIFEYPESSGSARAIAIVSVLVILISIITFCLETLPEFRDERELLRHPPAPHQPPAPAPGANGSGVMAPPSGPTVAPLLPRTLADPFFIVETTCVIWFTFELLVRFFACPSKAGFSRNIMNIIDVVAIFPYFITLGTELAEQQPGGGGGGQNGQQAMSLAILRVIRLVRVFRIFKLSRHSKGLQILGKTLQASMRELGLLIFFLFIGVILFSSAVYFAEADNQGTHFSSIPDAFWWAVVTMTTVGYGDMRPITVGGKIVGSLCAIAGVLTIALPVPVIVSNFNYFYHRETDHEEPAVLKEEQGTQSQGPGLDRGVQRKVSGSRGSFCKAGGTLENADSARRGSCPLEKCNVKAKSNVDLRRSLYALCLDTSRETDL
hERG (IKr) channel, sequence (Q12809 whole entry): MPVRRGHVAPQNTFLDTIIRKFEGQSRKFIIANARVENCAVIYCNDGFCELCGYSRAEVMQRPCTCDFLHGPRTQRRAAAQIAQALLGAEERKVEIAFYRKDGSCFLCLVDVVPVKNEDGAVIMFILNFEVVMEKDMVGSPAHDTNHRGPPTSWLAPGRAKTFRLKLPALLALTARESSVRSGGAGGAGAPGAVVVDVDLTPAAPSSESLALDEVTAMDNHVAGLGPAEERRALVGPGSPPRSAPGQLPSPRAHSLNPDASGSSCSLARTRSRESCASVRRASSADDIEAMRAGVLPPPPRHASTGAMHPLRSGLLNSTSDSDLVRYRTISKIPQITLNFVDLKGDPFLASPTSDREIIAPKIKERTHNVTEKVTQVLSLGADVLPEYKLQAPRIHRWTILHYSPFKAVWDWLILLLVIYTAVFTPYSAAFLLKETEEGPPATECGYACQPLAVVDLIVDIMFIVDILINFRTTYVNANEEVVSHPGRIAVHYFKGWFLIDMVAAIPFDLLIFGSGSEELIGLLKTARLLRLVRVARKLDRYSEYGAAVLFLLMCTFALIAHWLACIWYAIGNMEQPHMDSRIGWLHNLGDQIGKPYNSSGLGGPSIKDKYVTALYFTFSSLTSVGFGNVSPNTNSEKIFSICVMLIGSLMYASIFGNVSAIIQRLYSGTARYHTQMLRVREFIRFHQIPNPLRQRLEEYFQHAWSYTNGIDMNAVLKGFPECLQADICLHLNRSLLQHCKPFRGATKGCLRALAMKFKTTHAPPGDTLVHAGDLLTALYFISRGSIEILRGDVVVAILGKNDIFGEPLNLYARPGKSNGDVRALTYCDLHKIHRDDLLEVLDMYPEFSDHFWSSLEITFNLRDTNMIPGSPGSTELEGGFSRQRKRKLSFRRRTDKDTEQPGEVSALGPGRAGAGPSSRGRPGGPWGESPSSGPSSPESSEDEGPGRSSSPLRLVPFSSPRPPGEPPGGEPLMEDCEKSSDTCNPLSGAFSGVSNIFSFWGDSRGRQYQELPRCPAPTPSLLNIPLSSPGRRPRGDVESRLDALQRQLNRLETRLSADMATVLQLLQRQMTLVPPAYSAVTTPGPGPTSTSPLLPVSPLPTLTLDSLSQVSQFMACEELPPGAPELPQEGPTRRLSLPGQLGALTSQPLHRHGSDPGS

- IC50 [1]: 4.2 µM
- IC50 [3]: 0.53 µM
- IC50 (rKv4.3 (Ito) channel): 12 µM
- Hill coefficient, block of hHNa (hHNa ion channel; Hill equation fit): greater than 2.0
- IC50 (hHNa ion channel; read-out: IC50 estimate, block of hHNa (Hill equation fit)): 0.57 µM
- IC50 (hKv1.5 channel): 2 µM
SMILES: Fc1ccc(C(OCCN2CCN(CCCc3ccccc3)CC2)c2ccc(F)cc2)cc1 [Vanoxerine, vanoxerine]
- serum concentration [2]: about 100 nM
- effect on the duration of the cardiac potential (dog Purkinje fibers): no effect; also recorded: did not prolong
- IC50 (hERG (IKr) channel): 0.15 µM
